Experimental data from US20150141336A1, “Pancreatic Peptide Compounds and Use” (Novo Nordisk A/S, priority 2012, published 2015).
Where two headings read alike, the source gives them in different places.

Legend:
[1] = Assay (II) PK i.v. minipig, in vivo half-life; parameters: species or system Göttingen mini-pigs; details: male, Göttingen, iv
How it was run: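 Male Göttingen mini-pigs (18–22 kg, n=5) received 6 nmol/kg i.v. via central catheter, formulated in 50 mM K2HPO4, 0.05% tween 80, pH 8.0. EDTA plasma sampled pre-dose to 240 h, quantified by TFC/LC/MS/MS (MRM, range 1-2000 nmol/l); half-life from non-compartmental analysis per animal.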

[2] = Assay (X) determination of effect on body weight in mice on high fat diet; format: in vivo, C57B16J mice; details: male C57 DIO mice, s.c., 0.3 μmol/kg once daily; FIG. 1
Description: Additional assays useful to the invention comprise those that can determine the effect of PP peptides on body weight and/or body composition. An exemplary assay is the following which involves utilization of a diet induced obese male […] mouse model for metabolic disease: […] (Taconic, Denmark) on regular diurnal rhythm and with access to a high fat diet (D12492, Research Diet, USA) are used. The mice are weighed on a weekly basis. Mice are received at age 5 weeks and put on high fat diet and housed at 24 degree Celsius in normal daily rhythm. Mice are group housed 10 per cage during an obesity induction period of 14 weeks. Two weeks before study start mice are single housed (two mice per cage with a dividing wall between). […] Body weight for all mice is recorded daily in combination with dosing. […] Data are analysed in Graph Pad Prism. Change of body weight from baseline in male C57 DIO mice (mean±SEM, n=10) after s.c. administration of compound AF (0.03 μmol/kg once daily or 0.1 μmol/kg every other day) or the reference compound human PP(2-36) (0.3 μmol/kg, once daily) was determined using Assay (X). […] Change of body weight (mean±SEM, n=10-12) and change of body weight from baseline (mean±SEM, n=10) in male […] mice on a high fat diet after administration of vehicle, compound BN (1 μmol/kg/day, s.c.) or reference compound 1 (500 nmol/kg/day, pump) was determined using Assay (X).

[3] = minipig, in vivo; cited from earlier work
[4] = human, in vivo; cited from earlier work
[5] = minipig, Half-life minipig, Assay (II)

CC[C@H](C)[C@H](NC(=O)[C@H](Cc1ccc(O)cc1)NC(=O)[C@H](CCCNC(=N)N)NC(=O)[C@H](CCCNC(=N)N)NC(=O)[C@H](CC(C)C)NC(=O)[C@H](CC(=O)O)NC(=O)[C@H](C)NC(=O)[C@H](C)NC(=O)[C@H](Cc1ccc(O)cc1)NC(=O)[C@H](CCC(N)=O)NC(=O)[C@H](C)NC(=O)[C@H](CCSC)NC(=O)[C@H](CCC(N)=O)NC(=O)[C@H](CCC(=O)O)NC(=O)[C@@H]1CCCN1C(=O)[C@@H](NC(=O)[C@H](CCCCNC(=O)COCCOCCNC(=O)COCCOCCNC(=O)CC[C@H](NC(=O)CCCCCCCCCCCCCCCCC(=O)O)C(=O)O)NC(=O)[C@H](CC(N)=O)NC(=O)[C@H](CC(=O)O)NC(=O)CNC(=O)[C@@H]1CCCN1C(=O)[C@H](Cc1ccc(O)cc1)NC(=O)[C@@H](NC(=O)[C@@H]1CCCN1C(=O)[C@H](CCC(=O)O)NC(=O)[C@H](CC(C)C)NC(=O)[C@@H]1CCCN1)C(C)C)[C@@H](C)O)C(=O)N[C@@H](CC(N)=O)C(=O)N[C@@H](CCSC)C(=O)N[C@@H](CC(C)C)C(=O)N[C@H](C(=O)N[C@@H](CCCNC(=N)N)C(=O)N1CCC[C@H]1C(=O)N[C@@H](CCCNC(=N)N)C(=O)N[C@@H](Cc1ccc(O)cc1)C(N)=O)[C@@H](C)O [Compound V]
half-life [1, 5]: 36 h

CC[C@H](C)[C@H](NC(=O)[C@H](Cc1ccc(O)cc1)NC(=O)[C@H](CCCNC(=N)N)NC(=O)[C@H](CCCNC(=N)N)NC(=O)[C@H](CC(C)C)NC(=O)[C@H](CC(=O)O)NC(=O)[C@H](C)NC(=O)[C@H](C)NC(=O)[C@H](Cc1ccc(O)cc1)NC(=O)[C@H](CCC(N)=O)NC(=O)[C@H](C)NC(=O)[C@H](CCSC)NC(=O)[C@H](CCC(N)=O)NC(=O)[C@H](CCC(=O)O)NC(=O)[C@@H]1CCCN1C(=O)[C@@H](NC(=O)[C@H](C)NC(=O)[C@H](CCCCNC(=O)COCCOCCNC(=O)COCCOCCNC(=O)CC[C@H](NC(=O)CCCCCCCCCCCCCCCCC(=O)O)C(=O)O)NC(=O)[C@H](CC(=O)O)NC(=O)CNC(=O)[C@@H]1CCCN1C(=O)[C@H](Cc1ccc(O)cc1)NC(=O)[C@@H](NC(=O)[C@@H]1CCCN1C(=O)[C@H](CCC(=O)O)NC(=O)[C@H](CC(C)C)NC(=O)[C@@H]1CCCN1)C(C)C)[C@@H](C)O)C(=O)N[C@@H](CC(N)=O)C(=O)N[C@@H](CCSC)C(=O)N[C@@H](CC(C)C)C(=O)N[C@H](C(=O)N[C@@H](CCCNC(=N)N)C(=O)N1CCC[C@H]1C(=O)N[C@@H](CCCNC(=N)N)C(=O)N[C@@H](Cc1ccc(O)cc1)C(N)=O)[C@@H](C)O [Compound W]
half-life ([1]; Table 2, PP(2-36) based, crude sample, i.v. minipig, read-out: Half-life minipig, Assay (II) (converted)): 29 h

CC[C@H](C)[C@H](NC(=O)[C@H](Cc1ccc(O)cc1)NC(=O)[C@H](CCCNC(=N)N)NC(=O)[C@H](CCCNC(=N)N)NC(=O)[C@H](CC(C)C)NC(=O)[C@H](CC(=O)O)NC(=O)[C@H](C)NC(=O)[C@H](C)NC(=O)[C@H](Cc1ccc(O)cc1)NC(=O)[C@H](CCC(N)=O)NC(=O)[C@H](C)NC(=O)[C@H](CCSC)NC(=O)[C@H](CCC(N)=O)NC(=O)[C@H](CCC(=O)O)NC(=O)[C@@H]1CCCN1C(=O)[C@@H](NC(=O)[C@H](C)NC(=O)[C@H](CC(N)=O)NC(=O)[C@H](CCCCNC(=O)COCCOCCNC(=O)COCCOCCNC(=O)CC[C@H](NC(=O)CCCCCCCCCCCCCCCCC(=O)O)C(=O)O)NC(=O)CNC(=O)[C@@H]1CCCN1C(=O)[C@H](Cc1ccc(O)cc1)NC(=O)[C@@H](NC(=O)[C@@H]1CCCN1C(=O)[C@H](CCC(=O)O)NC(=O)[C@H](CC(C)C)NC(=O)[C@@H]1CCCN1)C(C)C)[C@@H](C)O)C(=O)N[C@@H](CC(N)=O)C(=O)N[C@@H](CCSC)C(=O)N[C@@H](CC(C)C)C(=O)N[C@H](C(=O)N[C@@H](CCCNC(=N)N)C(=O)N1CCC[C@H]1C(=O)N[C@@H](CCCNC(=N)N)C(=O)N[C@@H](Cc1ccc(O)cc1)C(N)=O)[C@@H](C)O [Compound X]
half-life [1, 5]: 47 h

CC[C@H](C)[C@H](NC(=O)[C@H](Cc1ccc(O)cc1)NC(=O)[C@H](CCCNC(=N)N)NC(=O)[C@H](CCCNC(=N)N)NC(=O)[C@H](CC(C)C)NC(=O)[C@H](CC(=O)O)NC(=O)[C@H](C)NC(=O)[C@H](C)NC(=O)[C@H](Cc1ccc(O)cc1)NC(=O)[C@H](CCC(N)=O)NC(=O)[C@H](C)NC(=O)[C@H](CCSC)NC(=O)[C@H](CCC(N)=O)NC(=O)[C@H](CCC(=O)O)NC(=O)[C@@H]1CCCN1C(=O)[C@@H](NC(=O)[C@H](C)NC(=O)[C@H](CC(N)=O)NC(=O)[C@H](CC(=O)O)NC(=O)CNC(=O)[C@@H]1CCCN1C(=O)[C@H](Cc1ccc(O)cc1)NC(=O)[C@@H](NC(=O)[C@@H]1CCCN1C(=O)[C@H](CCC(=O)O)NC(=O)[C@H](CC(C)C)NC(=O)[C@@H]1CCCN1C(=O)[C@H](C)N)C(C)C)[C@@H](C)O)C(=O)N[C@@H](CC(N)=O)C(=O)N[C@@H](CCSC)C(=O)N[C@@H](CC(C)C)C(=O)N[C@H](C(=O)N[C@@H](CCCNC(=N)N)C(=O)N1CCC[C@H]1C(=O)N[C@@H](CCCNC(=N)N)C(=O)N[C@@H](Cc1ccc(O)cc1)C(N)=O)[C@@H](C)O [PP(2-36)]
Change of body weight from baseline [2]: reduction in body weight

CC[C@H](C)[C@H](NC(=O)[C@H](Cc1ccc(O)cc1)NC(=O)[C@H](CCCNC(=N)N)NC(=O)[C@H](CCCNC(=N)N)NC(=O)[C@H](CC(C)C)NC(=O)[C@H](CC(=O)O)NC(=O)[C@H](C)NC(=O)[C@H](C)NC(=O)[C@H](Cc1ccc(O)cc1)NC(=O)[C@H](CCC(N)=O)NC(=O)[C@H](C)NC(=O)[C@H](CCSC)NC(=O)[C@H](CCC(N)=O)NC(=O)[C@H](CCC(=O)O)NC(=O)[C@@H]1CCCN1C(=O)[C@@H](NC(=O)[C@H](C)NC(=O)[C@H](CC(N)=O)NC(=O)[C@H](CC(=O)O)NC(=O)CNC(=O)[C@@H]1CCCN1C(=O)[C@H](Cc1ccc(O)cc1)NC(=O)[C@@H](NC(=O)[C@@H]1CCCN1C(=O)[C@H](CCC(=O)O)NC(=O)[C@H](CC(C)C)NC(=O)[C@@H]1CCCN1C(=O)[C@H](C)N)C(C)C)[C@@H](C)O)C(=O)N[C@@H](CC(N)=O)C(=O)N[C@@H](CCSC)C(=O)N[C@@H](CC(C)C)C(=O)N[C@H](C(=O)N[C@@H](CCCNC(=N)N)C(=O)N1CCC[C@H]1C(=O)N[C@@H](CCCNC(=N)N)C(=O)N[C@@H](Cc1ccc(O)cc1)C(N)=O)[C@@H](C)O [PP(3-36)]
half-life [3]: less than 30 minutes

CC[C@H](C)[C@H](NC(=O)[C@H](Cc1ccc(O)cc1)NC(=O)[C@H](CCCNC(=N)N)NC(=O)[C@H](CCCNC(=N)N)NC(=O)[C@H](CC(C)C)NC(=O)[C@H](CC(=O)O)NC(=O)[C@H](C)NC(=O)[C@H](C)NC(=O)[C@H](Cc1ccc(O)cc1)NC(=O)[C@H](CCC(N)=O)NC(=O)[C@H](C)NC(=O)[C@H](CCSC)NC(=O)[C@H](CCC(N)=O)NC(=O)[C@H](CCC(=O)O)NC(=O)[C@@H]1CCCN1C(=O)[C@@H](NC(=O)[C@H](C)NC(=O)[C@H](CC(N)=O)NC(=O)[C@H](CC(=O)O)NC(=O)CNC(=O)[C@@H]1CCCN1C(=O)[C@H](Cc1ccc(O)cc1)NC(=O)[C@@H](NC(=O)[C@@H]1CCCN1C(=O)[C@H](CCC(=O)O)NC(=O)[C@H](CC(C)C)NC(=O)[C@@H]1CCCN1C(=O)[C@H](C)N)C(C)C)[C@@H](C)O)C(=O)N[C@@H](CC(N)=O)C(=O)N[C@@H](CCSC)C(=O)N[C@@H](CC(C)C)C(=O)N[C@H](C(=O)N[C@@H](CCCNC(=N)N)C(=O)N1CCC[C@H]1C(=O)N[C@@H](CCCNC(=N)N)C(=O)N[C@@H](Cc1ccc(O)cc1)C(N)=O)[C@@H](C)O [PP]
half-life [4]: approximately 10 minutes
